For the assay, the target named is Egl nine homolog 1 (Homo sapiens, UniProt Q9GZT9). The experiment in a line: HIF-PH Assay. As to conditions: pH 7.4. The source says:
Ketoglutaric acid α-[1-14C]-sodium salt, alpha-ketoglutaric acid sodium salt, and HPLC purified peptide may be obtained from commercial sources, e.g., Perkin-Elmer (Wellesley Mass.), Sigma-Aldrich, and SynPep Corp. (Dublin Calif.), respectively. […] For example, a HIF peptide for use in the HIF-PH assay is [methoxycoumarin]-[…]-amide. HIF-PH, e.g., HIF-PH2 (EGLN1), can be expressed in, e.g., insect Hi5 cells, and partially purified, e.g., through a SP ion exchange chromatography column. […] Reactions are initiated by addition of HIF-PH enzyme.
Chain of Egl nine homolog 1 (Q9GZT9 whole entry): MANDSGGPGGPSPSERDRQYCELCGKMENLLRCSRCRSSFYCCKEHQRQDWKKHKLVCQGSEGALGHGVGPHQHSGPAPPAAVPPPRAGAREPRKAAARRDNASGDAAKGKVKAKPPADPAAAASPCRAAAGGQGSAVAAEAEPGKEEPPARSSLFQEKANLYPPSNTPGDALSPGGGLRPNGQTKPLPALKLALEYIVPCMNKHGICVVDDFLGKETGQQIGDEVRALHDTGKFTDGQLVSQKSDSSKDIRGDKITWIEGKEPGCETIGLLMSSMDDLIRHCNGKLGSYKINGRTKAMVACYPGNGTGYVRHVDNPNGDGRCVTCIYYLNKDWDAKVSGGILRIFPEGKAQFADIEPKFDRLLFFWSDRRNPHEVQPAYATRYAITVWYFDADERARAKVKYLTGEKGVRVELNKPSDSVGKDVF
`COC(=O)NCCNC(=O)c1ncc2ccc(=O)n(Cc3ccccc3)c2c1O` [US9695170 96] had an IC50 of 137 µM.

Compound `COC(=O)NCCNC(=O)c1nc(C#N)c2ccc(=O)n(Cc3ccccc3)c2c1O` [US9695170 95] registered an IC50 of 134 µM.

For `Cc1ccncc1-c1nc(C(=O)NCCC(=O)O)c(O)c2cc(-c3ccccc3)c(=O)n(Cc3ccccc3)c12` [US9695170 179], the IC50 was determined as 176 µM.

The IC50 is the concentration that inhibits the measured activity by half. A higher IC50 goes with a need for much substance.

These data come from BindingDB's records for patent US9695170 (FibroGen Inc, 2017).
